Reference: patent publication US20260001868A1, “HETEROCYCLIC COMPOUND CAPABLE OF INHIBITING PRMT5-MTA AND USE THEREOF” (Xizang Haisco Pharmaceutical Co., Ltd., priority 2022, published 2026)
Read-outs that look alike come from different tables or passages of the source.

Legend:
MIAPACA-2 cells = assay: MIAPACA-2 cell proliferation inhibition experiment; assay type: cell-based
Excerpt: (§1) The chemiluminescence readings were detected by a microplate reader.

PRMT5⋅MTA = PRMT5⋅MTA (Homo sapiens (Human), UniProt O14744); assay: PRMT5 MTA enzyme activity test (Alpha detection); assay type: biochemical; settings: PRMT5/MEP50 1 nM with MTA 1 μM
PRMT5⋅MTA, sequence (O14744 whole entry): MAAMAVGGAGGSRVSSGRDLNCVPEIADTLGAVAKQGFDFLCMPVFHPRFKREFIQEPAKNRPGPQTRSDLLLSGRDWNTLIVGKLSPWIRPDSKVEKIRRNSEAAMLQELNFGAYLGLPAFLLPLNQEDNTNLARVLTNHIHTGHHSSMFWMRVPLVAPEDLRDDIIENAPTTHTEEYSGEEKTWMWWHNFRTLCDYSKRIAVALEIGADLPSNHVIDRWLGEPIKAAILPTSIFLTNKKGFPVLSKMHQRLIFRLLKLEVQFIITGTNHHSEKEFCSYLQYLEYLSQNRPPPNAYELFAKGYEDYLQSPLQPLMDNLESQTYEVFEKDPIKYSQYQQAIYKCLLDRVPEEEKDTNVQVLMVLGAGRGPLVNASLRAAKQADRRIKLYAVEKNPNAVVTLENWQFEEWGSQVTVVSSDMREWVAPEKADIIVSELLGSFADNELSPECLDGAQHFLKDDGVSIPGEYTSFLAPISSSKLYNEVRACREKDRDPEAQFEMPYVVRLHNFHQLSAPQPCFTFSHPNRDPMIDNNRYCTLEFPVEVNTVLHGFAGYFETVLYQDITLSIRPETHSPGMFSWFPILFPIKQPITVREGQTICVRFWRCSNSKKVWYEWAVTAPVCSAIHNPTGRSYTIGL
PRMT5⋅MTA, sequence (Q9BQA1 whole entry partner): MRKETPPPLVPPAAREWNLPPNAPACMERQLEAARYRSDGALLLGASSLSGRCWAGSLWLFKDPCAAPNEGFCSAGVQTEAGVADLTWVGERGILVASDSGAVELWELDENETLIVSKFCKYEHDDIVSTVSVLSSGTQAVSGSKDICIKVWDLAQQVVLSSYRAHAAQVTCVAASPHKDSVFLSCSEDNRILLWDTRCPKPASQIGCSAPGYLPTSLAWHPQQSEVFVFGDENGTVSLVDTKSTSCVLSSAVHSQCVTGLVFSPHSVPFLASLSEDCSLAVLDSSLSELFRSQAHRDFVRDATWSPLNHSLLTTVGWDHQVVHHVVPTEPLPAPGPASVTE
Description: (§2) 1× test buffer (10 mM Tris, 1 mM DTT, 0.01% BSA, 0.01% Tween-20, adjusted to pH 8.0) was prepared. The test compound was dissolved in DMSO to prepare a 10 mM mother liquor, and the mother liquor was diluted to a 100-fold final concentration. 100 nL of the compound was added to each well of the administration group, and 100 nL of DMSO solution was added to blank wells and negative control wells. Then, 5 μL of a solution of PRMT5/MEP50 (BPS, Cat #31921) (final concentration: 1 nM) and MTA (final concentration: 1 μM) was added to the wells of the administration group and negative control wells, and 5 μL of 1× test buffer was added to the blank wells. Incubation was performed at room temperature for 15 minutes. […] 1× Epigenetics buffer (PerkinElmer, Cat #AL008F) was prepared and used for diluting acceptor microbeads and donor microbeads. 15 μL of acceptor microbeads (final concentration: 10 μg/mL; PerkinElmer, Cat #AL150C) and donor microbeads (final concentration: 10 μg/mL; PerkinElmer, Cat #AS106M) were added and incubated at room temperature for 1 hour in the dark. Then, detection was performed using the Alpha module of the reader Enspire microplate.
Based on the obtained data, the inhibition rate was calculated in Excel according to: inhibition rate (%)=(maximum value negative control−detection signal value)/(maximum value negative control−minimum value blank control)×100, and IC50 values were fitted by using XL-Fit.

[1] = tested on: SDMA production in HCT-116 cells; assay: SDMA detection in HCT-116 cells; assay type: cell-based; settings: 3 days incubation
Description: HCT-116 cells were cultured in an RPMI 1640 culture medium (ATCC, Cat #30-2001; supplemented with 10% FBS and 1% double antibody) until the confluence reached about 85%, and then the cells were plated. The culture medium was discarded, and the cells were rinse with 1×PBS and digested by trypsin (Gibco, Cat #15400-054). When the cells became round and began to fall off, the digestion was terminated by adding the culture medium. The cells were pipetted, transferred to a sterile centrifuge tube and centrifuged at 1000 rpm for 3 minutes, and after the centrifugation, the supernatant was discarded. The cells were resuspended by adding the culture medium to the centrifuge tube and then counted. According to the counting results, the cell suspension was adjusted to an appropriate concentration and poured into a loading slot. 100 μL of the cell suspension was added to each well of the 96-well plate. The compound was dissolved in DMSO to 10 mM and stored for later use. […] 100 μL of the Immobilon Forte Western HRP substrate (Millipore, Cat #WBLUF0500) was added to each well and incubated with shaking for 15 minutes, followed by chemiluminescence detection using the BMG microplate reader. After data normalization (SDMA reading/SMD3 reading), Graphpad Prism 8.3.0 software was used to plot the data, and the IC50 value was calculated.

[2] = design: species or system beagle dogs; settings: dog, in vivo
Description: 10.1 Experimental animals: male beagle dogs, about 8-11 kg, 6 beagle dogs/compound, purchased from Beijing Marshall Biotechnology Co., Ltd.
10.2 Experimental method: On the day of the experiment, (6× number of test compounds (n)) beagle dogs were randomly divided into groups according to their body weights. The animals were fasted but with water available for 12 to 14 h one day before the administration and were fed 4 h after the administration. Administration was carried out according to Table 8.
Before and after the administration, 1 mL of blood was taken from the jugular veins or limb veins, and placed in an EDTAK2 centrifuge tube. Centrifugation was performed at 5000 rpm at 4° C. for 10 min, and the plasma was collected. The blood collection time points for the intravenous administration group and intragastric administration group were 0 min, 5 min, 15 min, 30 min, 1 h, 2 h, 4 h, 6 h, 8 h, 10 h, 12 h and 24 h. Before analysis and detection, all samples were stored at −80° C., and a quantitative analysis of samples was performed using LC-MS/MS.

[3] = tested on: SDMA production in HCT-116 MTAP−/− cells; settings: read-out: HCT-116 MTAP−/− SDMA (IC50); 3 days incubation
Description: HCT-116 MTAP−/− cells were cultured in an RPMI 1640 culture medium (ATCC, #30-2001; supplemented with 10% FBS and 1% double antibody) until the confluence reached about 85%, and then the cells were plated. The culture medium was discarded, and the cells were rinse with 1×PBS and digested by trypsin (Gibco, Cat #15400-054). When the cells became round and began to fall off, the digestion was terminated by adding the culture medium. The cells were pipetted, transferred to a sterile centrifuge tube and centrifuged at 1000 rpm for 3 minutes, and after the centrifugation, the supernatant was discarded. The cells were resuspended by adding the culture medium to the centrifuge tube and then counted. According to the counting results, the cell suspension was adjusted to an appropriate concentration and poured into a loading slot. 100 μL of the cell suspension was added to each well of the 96-well plate. The compound was dissolved in DMSO to 10 mM and stored for later use. […] 100 μL of the Immobilon Forte Western HRP substrate (Millipore, Cat #WBLUF0500) was added to each well and incubated with shaking for 15 minutes, followed by chemiluminescence detection using the BMG microplate reader. After data normalization (SDMA reading/SMD3 reading), Graphpad Prism 8.3.0 software was used to plot the data, and the IC50 value was calculated.

HCT-116 cells = assay: HCT-116 cell proliferation inhibition experiment; assay type: cell-based
Excerpt: as §1

PRMT5/MEP50 = PRMT5/MEP50 (Homo sapiens (Human), UniProt O14744); assay: PRMT5 enzyme activity test (Alpha detection); assay type: biochemical; settings: PRMT5/MEP50 1 nM, absence of MTA
PRMT5/MEP50, sequence (O14744 whole entry): as the sequence (O14744 whole entry) above
PRMT5/MEP50, sequence (Q9BQA1 whole entry partner): as the sequence (Q9BQA1 whole entry partner) above
Description: as §2, with “a” for “a solution of”, “#31921) enzyme solution” for “#31921)”, “nM)” for “nM) and MTA (final concentration: 1 μM)”, “microplate. Based on the obtained data, the inhibition rate was calculated in Excel according to: inhibition rate (%)=(maximum value negative control−detection signal value)/(maximum value negative control−minimum value blank control)×100, and IC50 values were fitted by using XL-Fit.” for “microplate.”

[4] = day 5, read-out: MIAPACA-2 (day 5 GI50)
[5] = day 10, read-out: MIAPACA-2 (day 10 GI50)
[6] = Homo sapiens, MIA PaCa-2, 120 h, read-out: MIAPACA-2 (day 5 GI50)

| GI50 (MIAPACA-2 cells; [4]) [nM] | GI50 (MIAPACA-2 cells; [6]) [nM] | SMILES | GI50 (MIAPACA-2 cells; [5]) [nM] | IC50 (PRMT5⋅MTA; read-out: PRMT5•MTA) [nM] | IC50 (PRMT5/MEP50) [nM] | also measured |
| --- | --- | --- | --- | --- | --- | --- |
|  |  | Cn1ncc(-c2ccc3c(=O)[nH]cc(CN)c3c2)c1-c1c(F)c(Cl)cc(OC2CC2)c1C#N [Compound 1, 2-(4-(4-(aminomethyl)-1-oxo-1,2-dihydroisoquinolin-6-yl)-1-methyl-1H-pyrazol-5-yl)-4-chloro-6-cyclopropoxy-3-fluorobenzonitrile] |  | 1 to 10 | 10 to 50 |  |
| < 50 |  | Cn1ncc(-c2ccc3c(=O)[nH]c(CN)nc3c2)c1-c1c(F)c(Cl)cc(OC2CC2)c1C#N [Compound 11, (2S)-2-(4-(2-(aminomethyl)-4-oxo-3,4-dihydroquinazolin-7-yl)-1-methyl-1H-pyrazol-5-yl)-4-chloro-6-cyclopropoxy-3-fluorobenzonitrile] | < 50 |  |  |  |
|  | < 50 | Cn1ncc(-c2ccc3c(=O)[nH]c(CN)nc3c2)c1-c1c(F)c(Cl)cc(OC2CC2)c1C#N [Compound 5, 2-(4-(2-(aminomethyl)-4-oxo-3,4-dihydroquinazolin-7-yl)-1-methyl-1H-pyrazol-5-yl)-4-chloro-6-cyclopropoxy-3-fluorobenzonitrile] |  |  |  | GI50 (MIAPACA-2 cells; Homo sapiens, MIA PaCa-2, 240 h, read-out: MIAPACA-2 (day 10 GI50)): < 50 nM |
| < 50 |  | Cn1ncc(-c2ccc3c(=O)[nH]c(CN)nc3c2)c1-c1c(F)c(Cl)cc(OC2(C)CC2)c1C#N [Compound 14, (2S)-2-(4-(2-(aminomethyl)-4-oxo-3,4-dihydroquinazolin-7-yl)-1-methyl-1H-pyrazol-5-yl)-4-chloro-3-fluoro-6-(1-methylcyclopropoxy)benzonitrile] |  |  |  |  |
|  | < 50 | Cn1ncc(-c2cc(N3CCC3)c3c(=O)[nH]nc(CN)c3c2)c1-c1c(F)c(Cl)cc(OC2CC2)c1C#N [Compound 22, 2-(4-(4-(aminomethyl)-8-(azetidin-1-yl)-1-oxo-1,2-dihydrophthalazin-6-yl)-1-methyl-1H-pyrazol-5-yl)-4-chloro-6-cyclopropoxy-3-fluorobenzonitrile] |  |  |  |  |

| SMILES | GI50 (MIAPACA-2 cells; [4]) [nM] | GI50 (MIAPACA-2 cells; [6]) [nM] | GI50 (MIAPACA-2 cells; [5]) [nM] | IC50 (PRMT5⋅MTA; read-out: PRMT5•MTA) [nM] | IC50 (PRMT5/MEP50) [nM] | also measured |
| --- | --- | --- | --- | --- | --- | --- |
| C=Cc1cc(-c2cnn(C)c2-c2c(F)c(Cl)cc(OC3(C)CC3)c2C#N)cc2c(CN)n[nH]c(=O)c12 [Compound 30, (2R)-2-(4-(4-(aminomethyl)-1-oxo-8-vinyl-1,2-dihydrophthalazin-6-yl)-1-methyl-1H-pyrazol-5-yl)-4-chloro-3-fluoro-6-(1-methylcyclopropoxy)benzonitrile] | < 50 |  | < 50 | < 1 | 1 to 10 | IC50 (PRMT5⋅MTA; read-out: IC50 value for PRMT5⋅MTA): 0.8 nM; IC50 [1]: 499 nM; CL ([2]; iv, 5 mg/kg): 0.313 mL/min/kg; AUC0-t ([2]; po, 10 mg/kg): 178.458 µg·h/mL; T1/2 ([2]; po, 10 mg/kg): 16.1 h; IC50 [3]: 3.39 nM; GI50 (HCT-116 cells; day 5, read-out: HCT-116 (day 5 GI50)): > 500 nM; GI50 (HCT-116 cells; day 10, read-out: HCT-116 (day 10 GI50)): > 500 nM; GI50 (HCT-116 MTAP−/− cells; read-out: HCT-116 MTAP−/− (day 5 GI50), day 5): 38.2 nM; GI50 (HCT-116 MTAP−/− cells; read-out: HCT-116 MTAP−/− (day 10 GI50), day 10): 19.9 nM |
